Patent US6894073B2, “Use of diterpene compound as a therapeutic agent of inflammation, immune disease or cancer” (Korea Research Institute of Bioscience and Biotechnology, priority 2000, dated 2005)

Tests used:
[1] = test system: nitric oxide (NO); assay: Inhibition of NO production (nitrite, Griess reagent) in LPS-stimulated Raw 264.7 macrophage cells; type: cell-based, murine; settings: for NO: 1 μg/ml LPS, 24 hours; for inhibition at 0.03 µg/mL / inhibition at 0.3 µg/mL / inhibition at 3 µg/mL: read-out: Inhibition rate (%) of NO production; for IC50: LPS-stimulated Raw 264.7 cells
Procedure: To investigate whether kaurane diterpene compounds obtained in Example 1 can inhibit the production of nitric oxide (NO) which induces apoptosis of the immune and neuron cells, the present inventors measured the amount of nitrite (NO2) accumulated in the culture medium of LPS-stimulated murine macrophage cells, which were treated with four kaurane diterpene compounds, kamebanin, kamebacetal A, kamebakaurin, or exisanin A.
In detail, Raw 264.7 murine macrophage cells (ATCC TIB-71) in DMEM medium were seeded to 96-well plate at a cell density of 1×10^5 cells/well and incubated for 3 hours at 37° C., 5% CO2 incubator. To induce NO synthesis in the macrophage cell, 1 μg/ml of LPS and 3 μg/ml, 0.3 μg/ml, and 0.03 μg/ml of kaurane diterpene compounds of the present invention were added to the medium and the plate was incubated for 24 hours. The amount of NO2, the final oxidation product of NO induced by the LPS in the medium was measured as followed. After collecting and centrifuging incubated medium, 100 μl of Griess reagent was added into 100 μl of each culture medium. Then, the medium was incubated for ten minutes at room temperature and absorbance at 550 nm wavelength was measured. Griess reagent was prepared by mixing a solution, wherein 1% sulfanilamide was dissolved in 5% phosphoric acid, and a solution of 0.1% naphyhylethylenediamine-HCl by a 1:1 ratio. To measure the amount of standard NO synthesis, NaNO2 was serially diluted and the absorbance was measured after reacting it with Griess reagent. From this, the standard curve for the amount of NO production was obtained. The amount of NO production in the culture medium treated with each compound was estimated using standard curve for NO determination.

[2] = test system: prostaglandin E2; assay: Inhibition of prostaglandin E2 production in LPS-stimulated Raw 264.7 cells (enzyme immunometric assay); type: cell-based, murine; settings: for PGE2: 1 μg/ml LPS, 16 hours; for inhibition at 0.03 µg/mL / inhibition at 0.3 µg/mL / inhibition at 3 µg/mL / IC50: Mus musculus, RAW264.7; for inhibition at 0.03 µg/mL / inhibition at 0.3 µg/mL / inhibition at 3 µg/mL: read-out: Inhibition rate (%) of prostaglandin E2 production; for IC50: LPS-stimulated Raw 264.7 cells
Procedure: To investigate whether kaurane diterpene compounds obtained in Example 1 can inhibit the production of prostaglandin, which induces inflammatory reaction, the present inventors measured the amount of prostaglandin E2 accumulated in the culture medium of LPS-stimulated murine macrophage cells, which were treated with four kaurane diterpene compounds, kamebanin, kamebacetal A, kamebakaurin, or exisanin A.
In detail, Raw 264.7 cells in DMEM medium were seeded to a 96-well plate at a cell density of 1×10^5 cells/well and were incubated for 18 hours. Cyclooxygenase-1, the constitutive rate-determining enzyme of the prostaglandin synthesis was inactivated by incubating for 3 hrs with 500 μM of aspirin and each well was washed two times with PBS (phosphate-buffered saline). To each well were added 1 μg/ml of LPS and 3 μg/ml, 0.3 μg/ml, and 0.03 μg/ml concentrations of kaurane diterpene compounds of the present invention and was incubated for 16 hours. After collecting supernatant by centrifugation, the amount of prostaglandin in the culture medium was quantified by enzyme immunometric assay.

[3] = test system: TNF-α; assay: Inhibition of TNF-α production in LPS-stimulated Raw 264.7 cells (enzyme immunometric assay); type: cell-based, murine; settings: for TNF-α: 1 μg/ml LPS, 16 hours; for inhibition at 0.03 µg/mL / inhibition at 0.3 µg/mL / inhibition at 3 µg/mL / IC50: Mus musculus, RAW264.7; for inhibition at 0.03 µg/mL / inhibition at 0.3 µg/mL / inhibition at 3 µg/mL: read-out: Inhibition rate (%) of TNF-α production; for IC50: LPS-stimulated Raw 264.7 cells
Procedure: To investigate whether kaurane diterpene compounds obtained in Example 1 can inhibit effectively the production of tumor necrosis factor-α (TNF-α), one of the inflammatory mediator, which confers cytotoxic effect and induces the production of prostaglandin and cytokines, the present inventors measured the amount of TNF-α accumulated in the culture medium of LPS-stimulated murine macrophage cells, which were treated with four kaurane diterpene compounds, kamebanin, kamebacetal A, kamebakaurin, or exisanin A.
In detail, Raw 264.7 cells in DMEM medium were seeded to a 96-well plate at a cell density of 1×10^5 cells/well and were incubated for 3 hours at 37° C. in a 5% CO2 incubator. To each well were added 1 μg/ml of LPS and 3 μg/ml, 0.3 μg/ml, and 0.03 μg/ml concentrations of kaurane diterpene compounds of the present invention and was incubated for 16 hours. After collecting supernatant by centrifugation, the amount of TNF-α in the culture medium was quantified by enzyme immunometric assay.

[4] = test system: NF-κB; assay: NF-κB activation, SEAP reporter in LPS-stimulated RAW-NF-AP cells; type: cell-based, murine; settings: for inhibition at 0.03 µg/mL / inhibition at 0.3 µg/mL / inhibition at 3 µg/mL / IC50: Mus musculus; for inhibition at 0.03 µg/mL: 0.03 μg/ml compound; for inhibition at 0.03 µg/mL / inhibition at 0.3 µg/mL / inhibition at 3 µg/mL: 1 μg/ml LPS, 16 hours; for inhibition at 0.3 µg/mL: 0.3 μg/ml compound; for inhibition at 3 µg/mL: 3 μg/ml compound; for IC50: RAW-NF-AP cells, LPS
Procedure: RAW-NF-AP cells, which can be used effectively to detect the NF-κB dependent expression of reporter gene, (Korean Patent Application No. 1999-0006025), were seeded to a 96-well plate at a cell density of 1×10^5 cell/well and were incubated for 3 hours at 37° C. in a 5% CO2 incubator. Thereafter, 1 μg/ml concentration of LPS and 0.03 μg/ml, 0.3 μg/ml, and 3 μg/ml concentrations of kaurane diterpene compounds of the present invention were added to each well and was incubated for 16 hours. After collecting supernatant by centrifugation, the amount of secreted alkaline phosphatase (SEAP) in the culture medium of which expression is regulated by the activation of NF-κB was quantified.

[5] = test system: adjuvant arthritis model; assay: Adjuvant arthritis model, paw volume; type: in vivo, Sprague-Dawley rat; settings: day 16-22, paw volume on 23rd day
Procedure: Finding the inhibitory effect of kaurane diterpene compounds on the production of NO, prostaglandin, and TNF, and on the activation of NF-κB in the murine macrophage cells stimulated by LPS, the present inventors investigated the pharmacological efficacy of kaurane diterpene compounds with a adjuvant arthritis model according to the method of Futaki et al. (General Pharmacology, 1993, 24, 105-110). To prepare animal model of the arthritis, 0.05 ml of 0.1% Mycobacterium butyricum suspended in Freud adjuvant (Sigma, USA) was injected intradermally to the left hind paw of the male Sprague-Dawley rat of 180 g weight. On the fifteenth day after injection, the volume of the right paw of the rats was measured using plethysmometer (Ugo-Basile, Italy), and only the rats having arthritis on the right leg were selected. Thereafter, the selected rats were divided into four groups, six rats per each group. Four kinds of kaurane diterpene compounds of the present invention were administered orally to each groups everyday from the sixteenth day to twenty-second day with doses of 3 mg/kg/day, 10 mg/kg/day, and 20 mg/kg/day in the form of the suspended solution with 0.1% methylcellulose. The inhibition rate of arthritis was calculated by comparing the volume of the paw with that of the control on the 23rd day.

[6] = Mus musculus, RAW264.7, 0.03 μg/ml compound
[7] = Mus musculus, RAW264.7, 0.3 μg/ml compound
[8] = Mus musculus, RAW264.7, 3 μg/ml compound

SMILES | NO ([1]; 0.03 μg/ml compound) [µM] | NO ([1]; 0.3 μg/ml compound) [µM] | NO ([1]; 3 μg/ml compound) [µM] | inhibition at 0.03 µg/mL [1, 6] [%] | inhibition at 0.3 µg/mL [1, 7] [%] | inhibition at 3 µg/mL [1, 8] [%] | IC50 ([1]; Mus musculus, RAW264.7) [µM] | PGE2 ([2]; 0.03 μg/ml compound) [ng/mL] | PGE2 ([2]; 0.3 μg/ml compound) [ng/mL] | PGE2 ([2]; 3 μg/ml compound) [ng/mL] | inhibition at 0.03 µg/mL ([2]; 0.03 μg/ml compound) [%] | inhibition at 0.3 µg/mL ([2]; 0.3 μg/ml compound) [%] | inhibition at 3 µg/mL ([2]; 3 μg/ml compound) [%] | IC50 [2] [µM] | TNF-α ([3]; 0.03 μg/ml compound) [pg/mL] | TNF-α ([3]; 0.3 μg/ml compound) [pg/mL] | TNF-α ([3]; 3 μg/ml compound) [pg/mL] | inhibition at 0.03 µg/mL ([3]; 0.03 μg/ml compound) [%] | inhibition at 0.3 µg/mL ([3]; 0.3 μg/ml compound) [%] | inhibition at 3 µg/mL ([3]; 3 μg/ml compound) [%] | also measured
C=C1C(=O)[C@@]23C(C[C@H](O)[C@@H]1[C@H]2O)[C@@]1(C)C(C[C@H]3O)C(C)(C)CC[C@@H]1O (stereo partly shown) [Exisanin A, exisanin A] | 32.5 ± 3.5 | 22.2 ± 2.3 | 6.7 ± 0.8 | 37 | 59.3 | 92.5 | 0.35 | 13.7 ± 0.3 | 10.7 ± 1.3 | 5.7 ± 0.7 | -16.1 | 11.7 | 57.7 | 5.37 | 1243.0 ± 195.6 | 936.1 ± 0.00 | 103.2 ± 12.8 | 25.8 | 44.4 | 94.8 | IC50 [3]: 0.61 µM; inhibition at 0.03 µg/mL [4]: -2.6%; inhibition at 0.3 µg/mL [4]: 19.4%; inhibition at 3 µg/mL [4]: 93.7%; IC50 [4]: 1.66 µM; Inhibition rate (%) of arthritis ([5]; 3 mg/kg/day oral): 33 ± 14%; Inhibition rate (%) of arthritis ([5]; 10 mg/kg/day oral): 52 ± 12%; Inhibition rate (%) of arthritis ([5]; 20 mg/kg/day oral): 64 ± 13%
C=C1C(=O)[C@@]23C4CC5C(C)(C)CC[C@H](O)[C@@]5(C(OC)O4)C2CC[C@@H]1[C@H]3O (stereo partly shown) [Kamebacetal A, kamebacetal A] | 38.5 ± 4.8 | 19.9 ± 3.7 | 3.3 ± 0.7 | 23.9 | 64.2 | 100 | 0.584 | 13.2 ± 0.8 | 9.8 ± 1.4 | 2.7 ± 0.4 | -11.3 | 19.6 | 85.6 | 2.8 | 1495.0 ± 239.7 | 691.4 ± 152.7 | 38.9 ± 1.0 | 10.5 | 59.2 | 98.7 | NO production compared with negative control (no LPS) ([1]; 3 μg/ml): nearly the same as that of the negative control; IC50 [1]: 0.58 µM; IC50 [3]: 0.6 µM; SEAP activity compared with negative control (no LPS) ([4]; 3 μg/ml): to the extent of negative control; inhibition at 0.03 µg/mL [4]: 1.3%; inhibition at 0.3 µg/mL [4]: 62.2%; inhibition at 3 µg/mL [4]: 110%; IC50 [4]: 2.45 µM; Inhibition rate (%) of arthritis ([5]; 3 mg/kg/day oral): 33 ± 18%; Inhibition rate (%) of arthritis ([5]; 10 mg/kg/day oral): 55 ± 10%; Inhibition rate (%) of arthritis ([5]; 20 mg/kg/day oral): 69 ± 14%
C=C1C(=O)[C@@]23[C@H](O)C[C@@H]4C(C)(C)CC[C@H](O)[C@@]4(C)[C@@H]2CC[C@@H]1[C@H]3O [Kamebanin, kamebanin] | 23.4 ± 1.3 | 4.6 ± 0.6 | 3.6 ± 0.3 | 56.5 | 97.2 | 99.3 | 0.06 | 14.4 ± 2.2 | 4.0 ± 0.3 | 0.7 ± 0.1 | -22.5 | 73.9 | 104 | 0.88 | 1835.0 ± 158.8 | 805.6 ± 195.4 | 19.8 ± 0.7 | -10 | 52.3 | 99.8 | Prostaglandin production compared with negative control (no LPS) ([2]; 3 μg/ml): nearly the same as that of the negative control; IC50 [3]: 1 µM; inhibition at 0.03 µg/mL [4]: 0.6%; inhibition at 0.3 µg/mL [4]: 48.5%; inhibition at 3 µg/mL [4]: 99.7%; IC50 [4]: 0.72 µM; Inhibition rate (%) of arthritis ([5]; 3 mg/kg/day oral): 30 ± 15%; Inhibition rate (%) of arthritis ([5]; 10 mg/kg/day oral): 50 ± 12%; Inhibition rate (%) of arthritis ([5]; 20 mg/kg/day oral): 68 ± 14%
